Marks after values point to notes of the source that are not given here. Residues, ends and D or L forms follow the SMILES beside them.
System: HaCaT human keratinocyte line
Assay: Migration of keratinocytes, Oris Cell Migration Assay
Type: cell-based
Conditions: DMEM 0% FCS, 24 hours; for effect on the migration of keratinocytes (in words): oat seedling extract 10 or 30 μg/ml, hyaluronate 20 or 60 μg/ml, L-alanyl-L-glutamine 40 or 90 μg/ml, EGF 33 ng/ml; for % Migration (percentage activity compared to the control 0% FCS): control = 100
Description: The objective of this test was to evaluate the effect of hyaluronic acid, oat seedling extract, L-alanyl-L-glutamine and combinations thereof on the migration of keratinocytes using the Oris Cell Migration Assay kit (Platypus Technologies).
The spontaneously immortalised HaCaT human keratinocyte line, frequently cited as reference model in the literature was used.
The protocol used for the study of cell migration is based on the use of a 96 well kit, the Oris Cell Migration Assay (Platypus technologies—TEBU), enabling the miniaturisation and the quantification of this cellular process.
The principle of this test consists in studying cell migration towards the centre of the wells of the 96 well plate. It consists in placing a stopper in the wells, in order to create a 2 mm diameter detection zone. Then removing the stoppers once cells have properly adhered to the surface around them, and thus to enable cells to migrate towards the detection zone. The plates without stoppers and with the active ingredients are incubated at 37° C. for 24 hours in DMEM (Dulbecco's Modified Eagle Medium) 0% FCS (foetal calf serum). The quantity of cells situated in the zone where the stopper was is analysed in order to evaluate the migration of the cells. A mask makes it possible to visualise and to count uniquely the cells situated in this zone. For each condition, the average is determined on 6 to 8 wells.
The cells were incubated in FCS-free medium.
• EGF: 33 ng/ml, • oat seedling extract: 10 or 30 μg/ml,
Filtering. Concentration by drying until a dry extract is obtained. • sodium hyaluronate (molecular weight 250-450 kDa): 20 or 60 μg/ml, • L-alanyl-L-glutamine: 40 or 90 μg/ml.
The Results are Expressed: • In fluorescence intensity (FI), proportional to the quantity of cells having migrated. • In percentage activity compared to the control 0% FCS.
Statistical analyses by the Dunnett test were carried out on the crude migration values. This test then gives “p value” values characterising the significance of the results obtained for different conditions. The degree of significance was fixed at […]

[1] = Table 1, lower concentrations: EGF 33 ng/ml, ES 10 μg/ml, AH 20 μg/ml, A-G 40 μg/ml, control 1850
[2] = Table 1, lower concentrations: EGF 33 ng/ml, ES 10 μg/ml, AH 20 μg/ml, A-G 40 μg/ml
[3] = Table 2, higher concentrations: EGF 33 ng/ml, ES 30 μg/ml, AH 60 μg/ml, A-G 90 μg/ml, control 1729 ± 384
[4] = Table 2, higher concentrations: EGF 33 ng/ml, ES 30 μg/ml, AH 60 μg/ml, A-G 90 μg/ml

C[C@H](N)C(=O)N[C@@H](CCC(N)=O)C(=O)O [A-G, L-alanyl-L-glutamine] (H-Ala-Gln-OH)
effect on the migration of keratinocytes (in words): induces the migration of keratinocytes in a concentration-dependent manner | Average ± SD (fluorescence intensity, proportional to the quantity of cells having migrated) [1]: 2471 ± 788 | % Migration (percentage activity compared to the control 0% FCS) [2]: 200% | Average ± SD (fluorescence intensity, proportional to the quantity of cells having migrated) [3]: 2586 ± 1092 | % Migration (percentage activity compared to the control 0% FCS) [4]: 194%

EGF: positive control of the migration experiments, 33 ng/ml
effect on the migration of keratinocytes (in words): induces the migration of keratinocytes | Average ± SD (fluorescence intensity, proportional to the quantity of cells having migrated) [1]: 2569± | % Migration (percentage activity compared to the control 0% FCS) [2]: 216% | Average ± SD (fluorescence intensity, proportional to the quantity of cells having migrated) [3]: 3553 ± 1556 | % Migration (percentage activity compared to the control 0% FCS) [4]: 301 * %

sodium hyaluronate [AH]
effect on the migration of keratinocytes (in words): did not have any significant effect on the migration of keratinocytes | Average ± SD (fluorescence intensity, proportional to the quantity of cells having migrated) [1]: 1939 ± 438 | % Migration (percentage activity compared to the control 0% FCS) [2]: 114% | Average ± SD (fluorescence intensity, proportional to the quantity of cells having migrated) [3]: 1735 ± 488 | % Migration (percentage activity compared to the control 0% FCS) [4]: 101%
